Data from patent publication US12344631B2, “C17 polar-substituted heteroaromatic synthetic triterpenoids and methods of use thereof” (REATA PHARMACEUTICALS, INC., priority 2019, dated 2025).

Assays:
[1] = tested on: RAW 264.7 cells; experiment: Nitric oxide suppression assay (IFNγ-induced NO production); type: cell-based, mouse; conditions: for IC50: Mus musculus, RAW264.7, RAW 264.7 cells, 2 h pretreatment, 20 ng/mL interferon gamma 24 h, nitrite by Griess, read-out: NO IC50 (nM) (Mean ± SD); for NO IC50 Relative to RTA 402 (fold) (Mean ± SD): average of ratios from replicate experiments, benchmark RTA 402
Method: Tissue Culture. RAW 264.7, a mouse macrophage cell line, was obtained from American Type Culture Collection (Manassas VA) and maintained in the log phase of growth in Roswell Park Memorial Institute Medium 1640 (RPMI 1640) supplemented with 10% heat inactivated fetal bovine serum (FBS) and 1% penicillin-streptomycin. Cells were cultured and maintained in a humidified incubator at 37° C. under 5% CO2. Cells were sub-cultured every 3 days. […] All cell culture supplies were obtained from Life Technologies (Grand Island, NY) and VWR (Radnor, PA). Nitric Oxide Suppression Assay. RAW 264.7 cells were plated 1 day in advance of experimental treatments at a concentration of 30,000 cells per well onto Falcon-96 well clear bottom plates (Corning, NY) in a total volume of 200 μL per well using RPMI 1640 supplemented with 0.5% fetal bovine serum and 1% penicillin-streptomycin. The next day, cells were pretreated with compounds serially diluted from 1000× stocks. All compounds were dissolved in dimethyl sulfoxide (DMSO) at 10 mM stock solutions. Compounds were subsequently diluted in DMSO and RPMI 1640. Each well received a final concentration of 0.1% DMSO. Cells were pretreated for 2 hours and incubation at 37° C., followed by treatment with 20 ng/mL of interferon gamma (R&D Systems, Minneapolis, MN) per well for 24 hours. […] Afterwards, 50 μL of cell culture supernatant was transferred from each well into a new Falcon-96 well clear bottom plate. […] Afterwards, air bubbles were removed using ethanol vapor and absorbance was measured using a Spectramax M2e plate reader with a wavelength set to 525 nm. Viability was assessed using WST-1 cell proliferation reagent from Roche (Basel, Switzerland). After media was removed for the Nitric Oxide suppression assay, 15 μL of WST-1 reagent was added to each well of cells. Plates were briefly mixed on an orbital shaker and the cells were incubated at 37° C. for 30 minutes. Absorbance was measured using a Spectramax M2e plate reader with wavelengths set to 440 nm and 700 nm. For the ability of compounds to suppress the increase in nitric oxide release caused by interferon gamma, the absolute amount of nitrite that was produced in each well was extrapolated from the nitrite standards using a linear regression fit. All values were then normalized to the DMSO-interferon gamma treated wells and plotted as percent nitric oxide. IC50 values were calculated with a dependence on WST1 viability using Excel and/or GraphPad Prism (San Diego, CA).

[2] = tested on: AREc32 reporter cell line (antioxidant response element of rat Gsta2, Nrf2 target gene); experiment: AREc32 luciferase reporter activation; type: cell-based, human; conditions: for EC (2-fold): human, Arec32, 19 h, concentration increasing luminescence signal 2-fold above vehicle, nineteen hours, read-out: AREc32 EC2X (nM) (Mean ± SD); for AREc32 EC2X Relative to RTA 402 (fold) (Mean ± SD): average of ratios from replicate experiments, benchmark RTA 402
Method: […] The effect of several compounds disclosed herein on luciferase reporter activation was assessed in the AREc32 reporter cell line (see Table 10 and Table 11). This cell line is derived from human breast carcinoma MCF-7 cells and is stably transfected with a luciferase reporter gene under the transcriptional control of eight copies of the antioxidant response element from the rat Gsta2 gene, an Nrf2 target gene ([…] et al., 1990). […] Twenty-four hours after plating, cells were treated with vehicle (DMSO) or test compounds at concentrations ranging from 0.03 to 1000 nM for nineteen hours. Media was removed and 100 μL of 1:1 mixture of the One-Glo Luciferase assay reagent and culture medium was added to each well. After incubation for 5 min at room temperature, the luminescence signal was measured on a PHERAstar plate reader. The EC2X value was determined using Excel and GraphPad Prism software. The fold increase in luminescence signal for cells treated with each concentration of compound relative to cells treated with vehicle was determined and a dose-response curve was generated. The dose-response curve was fit using nonlinear regression analysis and used to extrapolate the EC2X value.

[3] = tested on: AML-12 hepatocyte cell line; experiment: Glutathione assay (total glutathione, GSH-Glo); type: cell-based, mouse; conditions: for EC50: Mus musculus, AML12, AML-12 cells, 24 hours, total glutathione, read-out: GSH EC50 (nM) (Mean ± SD); for GSH EC50 Relative to RTA 402 (fold) (Mean ± SD): benchmark RTA 402
Method: The effect of compound treatment on total glutathione levels was evaluated in the mouse AML-12 hepatocyte cell line. Glutathione—a tripeptide consisting of cysteine, glutamate, and glycine—is the major thiol-containing protein within the cell and regulates cellular redox balance. Glutathione also plays important roles in detoxification, protein glutathionylation, and iron-sulfur cluster biogenesis (Bachhawat and Yadav, 2018). Nrf2 regulates the expression of many genes involved in glutathione synthesis and metabolism, including both subunits of glutamate cysteine ligase (GCL), the enzyme that catalyzes the rate limiting step of glutathione biosynthesis (Thimmulappa et al., 2002). […] The next day, cells were treated with vehicle (DMSO) or test compound (0.03 nM to 1000 nM). Each well received a final concentration of 0.1% DMSO. Cells were incubated at 37° C., 5% CO2 for 24 hours. Total glutathione concentrations were measured using the GSH-Glo Glutathione Assay kit (Promega) according to the manufacturer's instructions. Briefly, a standard curve was prepared by serially diluting the provided glutathione solution. […] After a 30-minute incubation at room temperature, 100 μL of Luciferin detection reagent was added to all sample and standard wells and incubated for 15 minutes. Luminescence was measured using a PHERAstar plate reader. The EC50 value was determined using Excel and GraphPad Prism software. The basal concentration of glutathione was set to 0% and the highest concentration of glutathione produced following treatment with a test compound was set to 100% and a dose-response curve was generated. The dose-response curve was fit using nonlinear regression analysis and used to extrapolate the EC50 value.

| SMILES | IC50 [1] [nM] | NO IC50 Relative to RTA 402 (fold) (Mean ± SD) [1] | EC (2-fold) [2] [nM] | EC50 [3] [nM] | GSH EC50 Relative to RTA 402 (fold) (Mean ± SD) [3] | AREc32 EC2X Relative to RTA 402 (fold) (Mean ± SD) [2] | AREc32 Relative to CC in Same Experiment (Mean ± SD) ([2]; comparison compound CC2, average of ratios from experiments with direct comparisons) |
| --- | --- | --- | --- | --- | --- | --- | --- |
| Cc1nnc([C@]23CCC(C)(C)C[C@H]2[C@H]2C(=O)C=C4[C@@]5(C)C=C(C#N)C(=O)[C@@H](C)[C@@H]5CC[C@@]4(C)[C@]2(C)CC3)o1 [CC4, reference compound] | 0.66 ± 0.06 | 0.51 ± 0.02 | 8.12 ± 3.53 |  |  |  |  |
| CC1(C)CC[C@]2(c3noc(CCN)n3)CC[C@]3(C)[C@H](C(=O)C=C4[C@@]5(C)C=C(C#N)C(=O)C(C)(C)[C@@H]5CC[C@]43C)[C@@H]2C1 [Compound T3] | 2.6 | 0.69 ± 0.22 | 9.21 ± 3.66 | 1.45 ± 0.28 | 0.54 ± 0.06 | 0.91 ± 0.29 |  |
| CC1(C)CC[C@]2(c3noc(CO)n3)CC[C@]3(C)[C@H](C(=O)C=C4[C@@]5(C)C=C(C#N)C(=O)C(C)(C)[C@@H]5CC[C@]43C)[C@@H]2C1 [Compound T4] | 1.82 | 0.48 ± 0.13 | 10.5 ± 1.03 | 2.46 ± 1.8 | 0.89 ± 0.61 | 1.04 ± 0.02 |  |
| CC1(C)CC[C@]2(c3noc(CCO)n3)CC[C@]3(C)[C@H](C(=O)C=C4[C@@]5(C)C=C(C#N)C(=O)C(C)(C)[C@@H]5CC[C@]43C)[C@@H]2C1 [Compound T5] | 1.57 | 0.42 ± 0.15 | 11.7 ± 2.8 | 1.77 ± 0.98 | 0.65 ± 0.32 | 1.16 ± 0.19 |  |
| COCCc1nc([C@]23CCC(C)(C)C[C@H]2[C@H]2C(=O)C=C4[C@@]5(C)C=C(C#N)C(=O)C(C)(C)[C@@H]5CC[C@@]4(C)[C@]2(C)CC3)no1 [Compound T6] | 2.95 ± 0.11 | 0.79 ± 0.29 | 17.66 ± 0.1 | 2.9 ± 0.96 | 1.07 ± 0.28 | 1.77 ± 0.15 |  |
| CC1(C)CC[C@]2(c3nnn(CCO)n3)CC[C@]3(C)[C@H](C(=O)C=C4[C@@]5(C)C=C(C#N)C(=O)C(C)(C)[C@@H]5CC[C@]43C)[C@@H]2C1 [Compound T7] | 1.13 ± 0.18 | 0.43 ± 0.13 | 10.5 ± 3.66 | 2.87 ± 3.17 | 0.80 ± 0.59 | 1.10 ± 0.33 |  |
| CC1(C)CC[C@]2(c3nnn(CCF)n3)CC[C@]3(C)[C@H](C(=O)C=C4[C@@]5(C)C=C(C#N)C(=O)C(C)(C)[C@@H]5CC[C@]43C)[C@@H]2C1 [Compound T10] | 2.2 ± 0.2 | 1.62 ± 0.16 | 28.4 ± 9.42 | 1.45 ± 0.17 | 1.14 ± 0.03 | 2.41 ± 0.98 |  |
| CC1(C)CC[C@]2(c3nc(CCO)no3)CC[C@]3(C)[C@H](C(=O)C=C4[C@@]5(C)C=C(C#N)C(=O)C(C)(C)[C@@H]5CC[C@]43C)[C@@H]2C1 [Compound T13] | 0.56 | 0.22 ± 0.07 | 3.53 ± 0.98 | 2.04 ± 1.94 | 0.55 ± 0.33 | 0.37 ± 0.04 | 0.44 ± 0.07 |
| CC1(C)CC[C@]2(c3nc(C4CC4)no3)CC[C@]3(C)[C@H](C(=O)C=C4[C@@]5(C)C=C(C#N)C(=O)C(C)(C)[C@@H]5CC[C@]43C)[C@@H]2C1 [Compound T29] | 4.03 | 2.49 | 43.7 |  |  | 2.84 |  |
| CC1(C)CC[C@]2(c3nc(CC4CC4)no3)CC[C@]3(C)[C@H](C(=O)C=C4[C@@]5(C)C=C(C#N)C(=O)C(C)(C)[C@@H]5CC[C@]43C)[C@@H]2C1 [Compound T30] | 4.82 | 2.97 | 64.5 |  |  | 4.19 |  |
| C[C@@H]1C(=O)C(C#N)=C[C@]2(C)C3=CC(=O)[C@@H]4[C@@H]5CC(C)(C)CC[C@]5(c5nnc(CF)o5)CC[C@@]4(C)[C@]3(C)CC[C@@H]12 [Compound T38] | 0.46 ± 0.02 | 0.20 ± 0.02 | 3.95 ± 1.12 |  |  | 0.43 ± 0.14 |  |
| C[C@@H]1C(=O)C(C#N)=C[C@]2(C)C3=CC(=O)[C@@H]4[C@@H]5CC(C)(C)CC[C@]5(c5noc(CF)n5)CC[C@@]4(C)[C@]3(C)CC[C@@H]12 [Compound T39] | 1.98 | 0.42 | 1.88 |  |  | 0.20 |  |
| CC1(C)CC[C@]2(c3nc(CO)no3)CC[C@]3(C)[C@H](C(=O)C=C4[C@@]5(C)C=C(C#N)C(=O)C(C)(C)[C@@H]5CC[C@]43C)[C@@H]2C1 [Compound T42] | 0.44 | 0.32 | 2.58 |  |  | 0.26 |  |
